BigSolDB 2.1

Compound `Nc1ccc(S(=O)(=O)[O-])c(N)c1.[Na+]` has a solubility (mole fraction) (in isopropanol, 273.15 K) of 2.2e-05, a solubility (mole fraction) (in isopropanol, 278.15 K) of 2.78e-05 and a solubility (mole fraction) (in isopropanol, 283.15 K) of 3.51e-05. The solubility (mole fraction) (in isopropanol, 288.15 K) was 4.43e-05, the solubility (mole fraction) (in isopropanol, 293.15 K) was 5.57e-05 and the solubility (mole fraction) (in isopropanol, 298.15 K) was 6.99e-05. The solubility (mole fraction) (in isopropanol, 303.15 K) was 8.76e-05, the solubility (mole fraction) (in isopropanol, 308.15 K) was 0.000109 and the solubility (mole fraction) (in isopropanol, 313.15 K) was 0.000136. The solubility (mole fraction) (in isopropanol, 318.15 K) was 0.00017, the solubility (mole fraction) (in isopropanol, 323.15 K) was 0.000211 and the solubility (mole fraction) (in methanol, 273.15 K) was 0.000977. It also gave a solubility (mole fraction) (in methanol, 278.15 K) of 0.00109, a solubility (mole fraction) (in methanol, 283.15 K) of 0.00145 and a solubility (mole fraction) (in methanol, 288.15 K) of 0.00173. The solubility (mole fraction) (in methanol, 293.15 K) was 0.00228, the solubility (mole fraction) (in methanol, 298.15 K) was 0.00274 and the solubility (mole fraction) (in methanol, 303.15 K) was 0.00318. The solubility (mole fraction) (in methanol, 308.15 K) was 0.00395, the solubility (mole fraction) (in methanol, 313.15 K) was 0.00466 and the solubility (mole fraction) (in methanol, 318.15 K) was 0.00558. The solubility (mole fraction) (in methanol, 323.15 K) was 0.00661, the solubility (mole fraction) (in propylene glycol, 273.15 K) was 0.000831 and the solubility (mole fraction) (in propylene glycol, 278.15 K) was 0.00121. The solubility (mole fraction) (in propylene glycol, 283.15 K) was 0.00145, the solubility (mole fraction) (in propylene glycol, 288.15 K) was 0.00196 and the solubility (mole fraction) (in propylene glycol, 293.15 K) was 0.00235. For the same compound, the solubility (mole fraction) (in propylene glycol, 298.15 K) was 0.0028, the solubility (mole fraction) (in propylene glycol, 303.15 K) was 0.00359 and the solubility (mole fraction) (in propylene glycol, 308.15 K) was 0.00431. The solubility (mole fraction) (in propylene glycol, 313.15 K) was 0.00577, the solubility (mole fraction) (in propylene glycol, 318.15 K) was 0.00749 and the solubility (mole fraction) (in propylene glycol, 323.15 K) was 0.00963.
